pIC50: −log10 of the molar value.
What follows are compounds tested against T1, bromodomain BRD4 (44-168), BRD4 (333-460), and BRD4 (1-477 or 44-460) (Homo sapiens, UniProt O60885) (assay: Time Resolved Fluorescence Resonance Energy Transfer (TR-FRET) binding assay). Conditions: one of the FRET assays described.
T1 construct: BRD4(44-168), BRD4(333-460), BRD4(44-460), BRD4(1-477), O60885-1; fused on or other part: N-terminal BirA biotinylation motif, biotinylated; The TVMV-cleavable His6 tag is removed, except in some BRD4(44-460) runs detected with anti-His terbium cryptate

SMILES | pIC50
Cc1noc(C)c1-c1cc(C(N)=O)c2c3cc(N4CCOC4=O)ccc3n(Cc3ccccc3)c2c1 [Example 161, 9-benzyl-2-(3,5-dimethyl-4-isoxazolyl)-6-(2-oxo-1,3-oxazolidin-3-yl)-9H-carbazole-4-carboxamide] | > 7.30
CCNC(=O)c1cc(-c2c(C)noc2C)cc2c1c1cc(N3CCCOC3=O)ccc1n2C(C)c1ccccc1 (centres unmarked) [Example 167, 2-(3,5-dimethyl-4-isoxazolyl)-N-ethyl-6-(2-oxo-1,3-oxazinan-3-yl)-(1-phenylethyl)-9H-carbazole-4-carboxamide] | > 7.30
Cc1noc(C)c1-c1cc(C(N)=O)c2c3cc(C(=O)N4CC(F)C4)ccc3n(Cc3ccc(Cl)cc3F)c2c1 [Example 87] | > 7.30
Cc1noc(C)c1-c1cc(C(N)=O)c2c3ccc(C(C)(C)O)cc3n(C(c3ccc(F)cc3)C3CCOCC3)c2c1 (single isomer, unassigned) [Example 219, 2-(Dimethyl-1,2-oxazol-4-yl)-9-[(4-fluorophenyl)(oxan-4-yl)methyl]-7-(2-hydroxypropan-2-yl)-9H-carbazole-4-carboxamide] | > 7.30
CNC(=O)c1cc(-c2c(C)noc2C)cc2c1c1cc(C(=O)N3CC(F)C3)ccc1n2CC1CC1 [Example 115] | > 7.30
COCCn1c2ccc(C(=O)N3CC(C)OC(C)C3)cc2c2ccc(-c3c(C)noc3C)cc21 (centres unmarked) [Example 8] | > 6.30
Cc1noc(C)c1-c1cc(C(N)=O)c2c3cc(C(=O)N4CC(C)OC(C)C4)ccc3n(Cc3nccs3)c2c1 (centres unmarked) [Example 30] | > 7.30
Cc1noc(C)c1-c1cc(C(N)=O)c2c3cc(N4CCOC4=O)ccc3n(Cc3ccc(Cl)c(F)c3)c2c1 [Example 164, 9-(4-chloro-3-fluorobenzyl)-2-(3,5-dimethyl-4-isoxazolyl)-6-(2-oxo-1,3-oxazolidin-3-yl)-9H-carbazole-4-carboxamide] | > 6.30
COC(=O)c1ccc2c3c(C(N)=O)cc(-c4c(C)noc4C)cc3n(C(c3ccccc3)c3ccccc3)c2c1 [Example 192, Methyl 5-carbamoyl-7-(3,5-dimethyl-4-isoxazolyl)-9-(diphenylmethyl)-9H-carbazole-2-carboxylate] | > 7.30
Cc1noc(C)c1-c1cc(C(N)=O)c2c3ccc(C(C)(C)O)c(F)c3n(C(c3ccc(F)cc3)C3CCOCC3)c2c1 (single isomer, unassigned) [Example 224, 2-(Dimethyl-1,2-oxazol-4-yl)-8-fluoro-9-[(4-fluorophenyl)(oxan-4-yl)methyl]-7-(2-hydroxypropan-2-yl)-9H-carbazole-4-carboxamide] | > 7.30
Cc1noc(C)c1-c1cc(C(N)=O)c2c3cc(C(=O)N4CC(F)(F)C4)ccc3n(Cc3ccccc3)c2c1 [Example 78] | > 7.30
COc1ccc2c(c1)c1c(C(N)=O)cc(-c3c(C)noc3C)cc1n2Cc1ccccc1 [Example 177, 9-benzyl-2-(3,5-dimethyl-4-isoxazolyl)-6-methoxy-9H-carbazole-4-carboxamide] | > 7.30
Cc1noc(C)c1-c1cc(C(N)=O)c2c3cc(C(=O)N4CC(F)C4)ccc3n(Cc3ccccc3)c2c1 [Example 65] | > 7.30
Cc1noc(C)c1-c1cc(C(N)=O)c2c3cc(C(=O)N4CC[C@H](F)C4)ccc3n(Cc3ccccc3)c2c1 [Example 59] | > 7.30
Cc1noc(C)c1-c1ccc2c3cc(C(=O)N4CC(C)OC(C)C4)ccc3n(Cc3ccc(Cl)cc3)c2c1 (centres unmarked) [Example 12] | > 6.30
CNC(=O)c1cc(-c2c(C)noc2C)cc2c1c1cc(N3CCCOC3=O)ccc1n2Cc1ccc(F)cc1 [Example 171, 2-(3,5-dimethyl-4-isoxazolyl)-9-(4-fluorobenzyl)-N-methyl-6-(2-oxo-1,3-oxazinan-3-yl)-9H-carbazole-4-carboxamide] | > 7.30

SMILES | pIC50
Cc1noc(C)c1-c1ccc2c3cc(C(=O)N4CC(C)OC(C)C4)ccc3n(Cc3ccc(F)cc3)c2c1 (centres unmarked) [Example 18] | > 6.30
Cc1noc(C)c1-c1cc(C(N)=O)c2c3cc(C(=O)N4CC(F)C4)ccc3n(C(C)c3ccccc3C(F)(F)F)c2c1 (centres unmarked) [Example 89] | > 7.30
CNC(=O)c1cc(-c2c(C)noc2C)cc2c1c1cc(N3CCCOC3=O)ccc1n2Cc1ccc(Cl)cc1 [Example 170, 9-(4-chlorobenzyl)-2-(3,5-dimethyl-4-isoxazolyl)-N-methyl-6-(2-oxo-1,3-oxazinan-3-yl)-9H-carbazole-4-carboxamide] | > 7.30
Cc1noc(C)c1-c1cc(C(N)=O)c2c3cc(S(C)(=O)=O)ccc3n(Cc3ccccc3)c2c1 [Example 181, 9-benzyl-2-(3,5-dimethyl-4-isoxazolyl)-6-(methylsulfonyl)-9H-carbazole-4-carboxamide] | > 7.30
CNC(=O)c1cc(-c2c(C)noc2C)cc2c1c1cc(C(=O)N3CC(F)C3)ccc1n2C(C)c1ccccc1 (centres unmarked) [Example 113] | > 7.30
CNC(=O)c1cc(-c2c(C)noc2C)cc2c1c1cc(C(=O)N3CC(F)C3)ccc1n2C(C)c1ccc(F)cc1 (centres unmarked) [Example 112] | > 6.30
Cc1noc(C)c1-c1cc(C(N)=O)c2c3cc(C(=O)N4CCC(C)(O)CC4)ccc3n(Cc3ccccc3)c2c1 [Example 51] | > 7.30
Cc1noc(C)c1-c1cc(C(N)=O)c2c3ccc(C(C)(C)O)c(F)c3n(C(c3ccccc3)C3CCC(F)(F)CC3)c2c1 (single isomer, unassigned) [Example 226, 9-[(4,4-difluorocyclohexyl)(phenyl)methyl]-2-(dimethyl-1,2-oxazol-4-yl)-8-fluoro-7-(2-hydroxypropan-2-yl)-9H-carbazole-4-carboxamide] | > 7.30
Cc1noc(C)c1-c1cc(C(N)=O)c2c3cc(NC(=O)N4CCOCC4)ccc3n(Cc3ccccc3)c2c1 [Example 146, 9-benzyl-2-(3,5-dimethyl-4-isoxazolyl)-6-((4-morpholinylcarbonyl)amino)-9H-carbazole-4-carboxamide] | > 7.30
Cc1noc(C)c1-c1cc(C(N)=O)c2c3cc(N4CCOC4=O)ccc3n(Cc3ccc(F)cc3)c2c1 [Example 152, 2-(3,5-dimethyl-4-isoxazolyl)-9-(4-fluorobenzyl)-6-(2-oxo-1,3-oxazolidin-3-yl)-9H-carbazole-4-carboxamide] | > 7.30
Cc1noc(C)c1-c1ccc2c3cc(C(=O)N4CC(C)OC(C)C4)ccc3n(Cc3ccccc3)c2c1 (centres unmarked) [Example 9] | > 7.30
Cc1noc(C)c1-c1cc(C(N)=O)c2c3cc(C(=O)N4CCOCC4)ccc3n(Cc3ccccc3)c2c1 [Example 47, 9-benzyl-2-(3,5-dimethyl-4-isoxazolyl)-6-(4-morpholinylcarbonyl)-9H-carbazole-4-carboxamide] | > 7.30
Cc1noc(C)c1-c1cc(C(N)=O)c2c3cc(C(=O)NCCN4CCOCC4)ccc3n(Cc3ccccc3)c2c1 [Example 76] | > 7.30
Cc1noc(C)c1-c1cc(C(=O)N2CC(F)C2)c2c3cc(C(=O)N4CC(F)C4)ccc3n(Cc3ccc(F)cc3)c2c1 [Example 129, 2-(3,5-dimethyl-4-isoxazolyl)-4,6-bis((3-fluoro-1-azetidinyl)carbonyl)-9-(4-fluorobenzyl)-9H-carbazole] | > 6.30
Cc1noc(C)c1-c1cc(C(N)=O)c2c3cc(C(=O)N4C[C@@H](C)O[C@@H](C)C4)ccc3n(C(=O)c3ccccc3)c2c1 [Example 46, 9-benzoyl-2-(3,5-dimethylisoxazol-4-yl)-6-(cis-2,6-dimethylmorpholine-4-carbonyl)-9H-carbazole-4-carboxamide] | > 6.30
Cc1noc(C)c1-c1cc(C(N)=O)c2c3cc(C(=O)N(C)C)ccc3n(Cc3ccccc3)c2c1 [Example 48] | > 7.30

Reference: patent US9492460B2, “Carbazole compounds useful as bromodomain inhibitors” (Bristol-Myers Squibb Company, priority 2013, dated 2016)
